Experimental data from US20200017496A1 (priority 2017, published 2020).
Like-named read-outs stand apart in the source and are kept apart here.

Experiments:
Format in all cases: cell-based
[1] = tested on: Citrobacter koseri (CKR) isolates; experiment: MIC of compounds alone and combined with antibacterials, broth microdilution (CLSI); conditions: for MIC: Citrobacter koseri, ATB alone
How it was run: (§1)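 First, log-phase suspensions are brought to a final 5·10^5 CFU/mL in cation-adjusted Mueller-Hinton broth. Then plates with compound, antibacterial, or both incubate 16-20 h at 35° C under ambient air. Finally, visual inspection gives the lowest growth-preventing concentration for each agent.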

[2] = tested on: Klebsiella oxytoca (KOX) isolates; experiment: as above; conditions: for MIC: Klebsiella oxytoca, ATB alone
How it was run: as §1

[3] = tested on: Morganella morganii (MMO) isolates; experiment: as above; conditions: for MIC: Morganella morganii, ATB alone, read-out: MIC
How it was run: as §1

[4] = tested on: Proteus mirabilis (PMI) isolates; experiment: microbe, parasite or virus in culture; conditions: for MIC: Proteus mirabilis, ATB alone, read-out: MIC
Procedure: Method 2: MIC of Compounds Alone and Combined with Antibacterials Against Bacterial Isolates.
Compounds of the present invention were assessed against genotyped bacterial strains (Table 3, 4) alone or in combination with an antibacterial (Table 2). […] Log phase bacterial suspensions were adjusted to a final density of 5·10^5 CFU/mL in cation-adjusted Mueller-Hinton broth (ca-MHB; Becton-Dickinson and Company) and added to each well (98 μL). Microplates were incubated for 16-20 h at 35° C. in ambient air. The MIC of the compounds was defined as the lowest concentration of said compounds that prevented bacterial growth as read by visual inspection. The MIC of ATB at each compound concentration was defined as the lowest concentration of ATB that prevented bacterial growth as read by visual inspection.

CC(C)(O/N=C(\C(=O)N[C@@H]1C(=O)N2C(C(=O)[O-])=C(C[n+]3ccccc3)CS[C@H]12)c1csc(N)n1)C(=O)O [CAZ, Ceftazidime]
MIC ATB in combination ([1]; CKO ROU, AF1 @ 4 μg/mL): <=0.25 μg/mL
MIC ATB in combination ([1]; CKO ROU, AF1 @ 8 μg/mL): <=0.25 μg/mL
MIC ATB in combination ([1]; CKO UFR149, AF1 @ 4 μg/mL): 0.5 µg/mL
MIC ATB in combination ([1]; CKO UFR149, AF1 @ 8 μg/mL): <=0.25 μg/mL
MIC ATB in combination ([1]; CKO UFR150, AF1 @ 4 μg/mL): 4 µg/mL
MIC ATB in combination ([1]; CKO UFR150, AF1 @ 8 μg/mL): 4 µg/mL
MIC ([1]; strain CKO ROU (TEM-1, SHV-12, CTX-M-15, OXA-1, OXA-48), read-out: MIC): 1 µg/mL
MIC ([1]; strain CKO UFR150 (TEM-1, OXA-48), read-out: MIC): 4 µg/mL
MIC ATB in combination ([2]; KOX UFR21, AF1 @ 4 μg/mL): 2 µg/mL
MIC ATB in combination ([2]; KOX UFR21, AF1 @ 8 μg/mL): <=0.25 μg/mL
MIC ATB in combination ([2]; KOX UFR173, AF1 @ 8 μg/mL): <=0.25 μg/mL
MIC ATB in combination ([2]; KOX UFR223, AF1 @ 4 μg/mL): <=0.25 μg/mL
MIC ATB in combination ([2]; KOX UFR223, AF1 @ 8 μg/mL): <=0.25 μg/mL
MIC ATB in combination ([2]; KOX UFR224, AF1 @ 4 μg/mL): <=0.25 μg/mL
MIC ATB in combination ([2]; KOX UFR224, AF1 @ 8 μg/mL): <=0.25 μg/mL
MIC ([2]; strain KOX UFR173 (OXY2-2), read-out: MIC): 8 µg/mL
MIC ATB in combination ([3]; MMO 200321, AF1 @ 4 μg/mL): <=0.25 μg/mL
MIC ATB in combination ([3]; MMO UFR144, AF1 @ 4 μg/mL): <=0.25 μg/mL
MIC ATB in combination ([3]; MMO UFR144, AF1 @ 8 μg/mL): <=0.25 μg/mL
MIC ATB in combination ([3]; MMO UFR240, AF1 @ 4 μg/mL): <=0.25 μg/mL
MIC ATB in combination ([3]; MMO UFR240, AF1 @ 8 μg/mL): <=0.25 μg/mL
MIC ATB in combination ([3]; MMO UFR241, AF1 @ 4 μg/mL): <=0.25 μg/mL
MIC ATB in combination ([3]; MMO UFR241, AF1 @ 8 μg/mL): <=0.25 μg/mL
MIC ATB in combination ([3]; MMO UFR242, AF1 @ 4 μg/mL): 2 µg/mL
MIC ATB in combination ([3]; MMO UFR242, AF1 @ 8 μg/mL): 0.25 µg/mL
MIC ATB in combination ([3]; MMO UFR243, AF1 @ 4 μg/mL): <=0.25 μg/mL
MIC ATB in combination ([3]; MMO UFR243, AF1 @ 8 μg/mL): <=0.25 μg/mL
MIC ATB in combination ([3]; MMO UFR244, AF1 @ 4 μg/mL): <=0.25 μg/mL
MIC ATB in combination ([3]; MMO UFR244, AF1 @ 8 μg/mL): <=0.25 μg/mL
MIC ATB in combination ([3]; MMO UFR245, AF1 @ 4 μg/mL): <=0.25 μg/mL
MIC ATB in combination ([3]; MMO UFR245, AF1 @ 8 μg/mL): <=0.25 μg/mL
MIC ATB in combination ([3]; MMO UFR246, AF1 @ 4 μg/mL): <=0.25 μg/mL
MIC ATB in combination ([3]; MMO UFR246, AF1 @ 8 μg/mL): <=0.25 μg/mL
MIC ([3]; strain MMO 200321 (TEM-1, CTX-M-15, OXA-1)): 16 µg/mL
MIC ([3]; strain MMO UFR144 (TEM-1, CTX-M-15)): 8 µg/mL
MIC ([3]; strain MMO UFR241 (TEM-1, CTX-M-15)): 8 µg/mL
MIC ([3]; strain MMO UFR242 (TEM-52)): 32 µg/mL
MIC ([3]; strain MMO UFR243 (DHA-1)): 1 µg/mL
MIC ([3]; strain MMO UFR245 (DHA-1)): 8 µg/mL
MIC ([3]; strain MMO UFR246 (DHA-1)): 4 µg/mL
MIC ATB in combination ([4]; PMI UFR82, AF1 @ 4 μg/mL): <=0.25 μg/mL
MIC ATB in combination ([4]; PMI UFR82, AF1 @ 8 μg/mL): <=0.25 μg/mL
MIC ATB in combination ([4]; PMI UFR120, AF1 @ 4 μg/mL): <=0.25 μg/mL
MIC ATB in combination ([4]; PMI UFR120, AF1 @ 8 μg/mL): <=0.25 μg/mL
MIC ATB in combination ([4]; PMI UFR121, AF1 @ 4 μg/mL): <=0.25 μg/mL
MIC ATB in combination ([4]; PMI UFR121, AF1 @ 8 μg/mL): <=0.25 μg/mL
MIC ATB in combination ([4]; PMI UFR122, AF1 @ 4 μg/mL): <=0.25 μg/mL
MIC ATB in combination ([4]; PMI UFR122, AF1 @ 8 μg/mL): <=0.25 μg/mL
MIC ATB in combination ([4]; PMI UFR123, AF1 @ 4 μg/mL): <=0.25 μg/mL
MIC ATB in combination ([4]; PMI UFR123, AF1 @ 8 μg/mL): <=0.25 μg/mL
MIC ATB in combination ([4]; PMI UFR124, AF1 @ 4 μg/mL): <=0.25 μg/mL
MIC ATB in combination ([4]; PMI UFR124, AF1 @ 8 μg/mL): <=0.25 μg/mL
MIC ATB in combination ([4]; PMI UFR125, AF1 @ 4 μg/mL): <=0.25 μg/mL
MIC ATB in combination ([4]; PMI UFR125, AF1 @ 8 μg/mL): <=0.25 μg/mL
MIC ATB in combination ([4]; PMI UFR126, AF1 @ 4 μg/mL): <=0.25 μg/mL
MIC ATB in combination ([4]; PMI UFR126, AF1 @ 8 μg/mL): <=0.25 μg/mL
MIC ATB in combination ([4]; PMI UFR127, AF1 @ 4 μg/mL): <=0.25 μg/mL
MIC ATB in combination ([4]; PMI UFR127, AF1 @ 8 μg/mL): <=0.25 μg/mL
MIC ATB in combination ([4]; PMI UFR129, AF1 @ 4 μg/mL): <=0.25 μg/mL
MIC ATB in combination ([4]; PMI UFR129, AF1 @ 8 μg/mL): <=0.25 μg/mL
MIC ATB in combination ([4]; PMI UFR130, AF1 @ 4 μg/mL): <=0.25 μg/mL
MIC ATB in combination ([4]; PMI UFR130, AF1 @ 8 μg/mL): <=0.25 μg/mL
MIC ATB in combination ([4]; PMI UFR237, AF1 @ 4 μg/mL): 0.5 µg/mL
MIC ATB in combination ([4]; PMI UFR237, AF1 @ 8 μg/mL): <=0.25 μg/mL
MIC ([4]; strain PMI UFR82 (CMY-2)): 4 µg/mL
MIC ([4]; strain PMI UFR120 (TEM-1, SHV-11, CTX-M-14)): ≤ 0.25 µg/mL
MIC ([4]; strain PMI UFR121 (TEM-1, TEM-52)): 16 µg/mL
MIC ([4]; strain PMI UFR122 (TEM-1, CTX-M-15)): 1 µg/mL
MIC ([4]; strain PMI UFR123 (CTX-M-1)): 2 µg/mL
MIC ([4]; strain PMI UFR124 (CTX-M-2)): 2 µg/mL
MIC ([4]; strain PMI UFR125 (CTX-M-71)): 2 µg/mL
MIC ([4]; strain PMI UFR130 (CMY-2)): 4 µg/mL

C=CC1=C(C(=O)O)N2C(=O)[C@@H](NC(=O)/C(=N\O)c3csc(N)n3)[C@H]2SC1 [CDR, Cefdinir]
MIC ATB in combination ([1]; CKO ROU, AF1 @ 4 μg/mL): 2 µg/mL
MIC ATB in combination ([1]; CKO UFR149, AF1 @ 4 μg/mL): 32 µg/mL
MIC ATB in combination ([1]; CKO UFR150, AF1 @ 4 μg/mL): 4 µg/mL
MIC ([1]; strain CKO ROU (TEM-1, SHV-12, CTX-M-15, OXA-1, OXA-48)): > 256 µg/mL
MIC ([1]; strain CKO UFR150 (TEM-1, OXA-48)): > 256 µg/mL
MIC ATB in combination ([2]; KOX UFR21, AF1 @ 4 μg/mL): 8 µg/mL
MIC ATB in combination ([2]; KOX UFR173, AF1 @ 4 μg/mL): 0.5 µg/mL
MIC ATB in combination ([2]; KOX UFR223, AF1 @ 4 μg/mL): <=0.25 μg/mL
MIC ATB in combination ([2]; KOX UFR224, AF1 @ 4 μg/mL): <=0.25 μg/mL
MIC ([2]; strain KOX UFR21 (TEM-1, CTX-M-15, OXA-48)): > 256 µg/mL
MIC ([2]; strain KOX UFR223 (SHV-11, OXA-48)): > 256 µg/mL
MIC ([2]; strain KOX UFR224 (CTX-M-15, OXA-48)): > 256 µg/mL
MIC ATB in combination ([3]; MMO 200321, AF1 @ 4 μg/mL): 4 µg/mL
MIC ATB in combination ([3]; MMO UFR144, AF1 @ 4 μg/mL): 4 µg/mL
MIC ATB in combination ([3]; MMO UFR240, AF1 @ 4 μg/mL): 0.5 µg/mL
MIC ATB in combination ([3]; MMO UFR241, AF1 @ 4 μg/mL): 4 µg/mL
MIC ATB in combination ([3]; MMO UFR242, AF1 @ 4 μg/mL): 4 µg/mL
MIC ATB in combination ([3]; MMO UFR243, AF1 @ 4 μg/mL): 4 µg/mL
MIC ATB in combination ([3]; MMO UFR244, AF1 @ 4 μg/mL): 2 µg/mL
MIC ATB in combination ([3]; MMO UFR245, AF1 @ 4 μg/mL): 4 µg/mL
MIC ATB in combination ([3]; MMO UFR246, AF1 @ 4 μg/mL): 2 µg/mL
MIC ATB in combination ([3]; MMO UFR247, AF1 @ 4 μg/mL): 1 µg/mL
MIC ATB in combination ([4]; PMI UFR82, AF1 @ 4 μg/mL): 0.5 µg/mL
MIC ATB in combination ([4]; PMI UFR120, AF1 @ 4 μg/mL): <=0.25 μg/mL
MIC ATB in combination ([4]; PMI UFR121, AF1 @ 4 μg/mL): <=0.25 μg/mL
MIC ATB in combination ([4]; PMI UFR122, AF1 @ 4 μg/mL): <=0.25 μg/mL
MIC ATB in combination ([4]; PMI UFR123, AF1 @ 4 μg/mL): <=0.25 μg/mL
MIC ATB in combination ([4]; PMI UFR124, AF1 @ 4 μg/mL): <=0.25 μg/mL
MIC ATB in combination ([4]; PMI UFR125, AF1 @ 4 μg/mL): <=0.25 μg/mL
MIC ATB in combination ([4]; PMI UFR126, AF1 @ 4 μg/mL): <=0.25 μg/mL
MIC ATB in combination ([4]; PMI UFR127, AF1 @ 4 μg/mL): <=0.25 μg/mL
MIC ATB in combination ([4]; PMI UFR129, AF1 @ 4 μg/mL): <=0.25 μg/mL
MIC ATB in combination ([4]; PMI UFR130, AF1 @ 4 μg/mL): <=0.25 μg/mL
MIC ATB in combination ([4]; PMI UFR237, AF1 @ 4 μg/mL): <=0.25 μg/mL
